This note sets out measurements from ChEMBL document CHEMBL1201862, “PubChem BioAssay data set” (2004).

In assay [1] the target is Eukaryotic translation initiation factor 4E (Mus musculus, UniProt P63073). Kind of assay: blockers of eIF4G binding by eIF4E – biochemical, TR-FRET, dose response (AID 855).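 Further: potency for disrupting eIF4E binding to eIF4GI seen as loss of FRET.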 The assay is classed as functional. On the technique in general: Time-resolved FRET reads energy transfer from a long-lived donor to a nearby acceptor.
The target in assay [2] is T1, Hexokinase-1 (Homo sapiens, UniProt P19367).
T1 sequence (P19367 whole entry): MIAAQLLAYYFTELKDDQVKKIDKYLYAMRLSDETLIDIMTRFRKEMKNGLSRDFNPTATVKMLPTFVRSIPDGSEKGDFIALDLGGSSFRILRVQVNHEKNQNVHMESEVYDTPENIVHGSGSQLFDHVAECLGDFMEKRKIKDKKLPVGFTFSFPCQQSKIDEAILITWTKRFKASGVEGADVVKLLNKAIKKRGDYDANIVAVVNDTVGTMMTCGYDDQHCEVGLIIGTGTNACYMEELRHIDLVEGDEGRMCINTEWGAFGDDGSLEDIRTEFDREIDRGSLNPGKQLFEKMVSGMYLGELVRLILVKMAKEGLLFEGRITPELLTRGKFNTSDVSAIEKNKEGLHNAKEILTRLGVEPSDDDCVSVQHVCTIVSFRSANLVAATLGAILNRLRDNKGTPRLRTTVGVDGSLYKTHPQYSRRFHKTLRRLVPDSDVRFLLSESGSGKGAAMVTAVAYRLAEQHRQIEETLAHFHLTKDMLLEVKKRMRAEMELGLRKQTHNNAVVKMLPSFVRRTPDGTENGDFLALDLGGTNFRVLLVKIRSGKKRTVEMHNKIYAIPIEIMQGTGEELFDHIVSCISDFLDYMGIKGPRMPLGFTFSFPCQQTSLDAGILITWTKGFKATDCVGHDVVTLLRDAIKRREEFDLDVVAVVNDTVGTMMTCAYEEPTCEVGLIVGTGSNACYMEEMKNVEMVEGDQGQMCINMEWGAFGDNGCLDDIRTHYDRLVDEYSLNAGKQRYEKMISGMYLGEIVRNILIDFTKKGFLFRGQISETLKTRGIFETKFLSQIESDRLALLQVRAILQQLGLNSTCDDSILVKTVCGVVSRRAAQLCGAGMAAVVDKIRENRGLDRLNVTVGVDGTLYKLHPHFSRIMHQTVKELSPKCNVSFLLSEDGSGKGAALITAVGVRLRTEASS
Kind of assay: HK1 enzyme activation by HKDC1 hits – biochemical, selectivity assay for HKDC1 activator project, dose response (AID 504762). The format is functional.

For assay [3], the target named is T2, Polyadenylate-binding protein 1 (Homo sapiens, UniProt P11940). Kind of assay: MLLE binding blockers, Cy5 peptide tracer – biochemical, fluorescence polarization, Cy5-PAM2 peptide, secondary, miRNA deadenylation inhibitor project, dose response (AID 602260). The assay is classed as functional. The settings on record: read-out: IC50_Mean. Background: Polarisation of emitted light reports the rotation of a fluorescent probe.

Assay [4] has as its target T2, Polyadenylate-binding protein 1. Kind of assay: MLLE domain peptide-binding blockers, IC50 – biochemical, fluorescence polarization, FITC-PAM2 peptide, dose response (AID 602259). The format is functional. The settings on record: read-out: IC50_Mean.
Assay [5] deals with T3, Hexokinase HKDC1 (Homo sapiens, UniProt Q2TB90).
T3 sequence (Q2TB90 whole entry): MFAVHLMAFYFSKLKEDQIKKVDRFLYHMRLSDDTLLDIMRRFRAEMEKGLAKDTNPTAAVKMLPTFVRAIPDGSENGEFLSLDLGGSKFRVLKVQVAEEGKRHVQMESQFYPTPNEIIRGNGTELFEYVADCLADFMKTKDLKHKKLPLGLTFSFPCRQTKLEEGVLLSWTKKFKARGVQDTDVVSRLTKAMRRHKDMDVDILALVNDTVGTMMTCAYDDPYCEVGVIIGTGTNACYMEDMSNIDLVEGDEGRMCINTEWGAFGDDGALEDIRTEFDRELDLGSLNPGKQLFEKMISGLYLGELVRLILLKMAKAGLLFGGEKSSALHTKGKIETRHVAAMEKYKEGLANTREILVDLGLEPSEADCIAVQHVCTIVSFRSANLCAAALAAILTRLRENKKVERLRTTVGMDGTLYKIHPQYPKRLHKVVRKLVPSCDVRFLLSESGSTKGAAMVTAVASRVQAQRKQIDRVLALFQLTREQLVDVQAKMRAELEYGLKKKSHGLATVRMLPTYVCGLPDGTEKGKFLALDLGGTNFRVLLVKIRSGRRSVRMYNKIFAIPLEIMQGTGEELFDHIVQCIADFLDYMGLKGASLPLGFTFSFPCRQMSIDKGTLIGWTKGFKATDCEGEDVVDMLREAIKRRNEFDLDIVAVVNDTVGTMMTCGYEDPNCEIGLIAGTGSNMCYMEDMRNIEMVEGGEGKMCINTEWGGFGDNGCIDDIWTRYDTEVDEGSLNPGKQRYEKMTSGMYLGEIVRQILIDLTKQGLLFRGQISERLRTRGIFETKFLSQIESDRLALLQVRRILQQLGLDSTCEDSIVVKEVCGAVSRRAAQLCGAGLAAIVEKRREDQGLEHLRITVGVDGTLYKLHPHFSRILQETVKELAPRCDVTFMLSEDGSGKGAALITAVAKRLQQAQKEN
Kind of assay: activation of HKDC1 glucose phosphorylation – biochemical, W721R variant, dose response (AID 504730). The format is functional.

Assay [6] deals with DNA dC->dU-editing enzyme APOBEC-3G (Homo sapiens, UniProt Q9HC16). Kind of assay: Dose Response confirmation of small molecule APOBEC3G DNA Deaminase Inhibitors via a fluorescence-based single-stranded DNA deaminase assay. [Related pubchem assays (depositor defined):AID493012, AID493028]. The assay is classed as functional.
The target in assay [7] is T4, Runt-related transcription factor 1/Core-binding factor subunit beta (Homo sapiens, UniProt Q01196+Q13951). Kind of assay: disruptors of Runt domain/CBFb-SMMHC interaction – biochemical, FRET, Cerulean-Runt, Venus-CBFb-SMMHC, uHTS, […] (AID 1434). The assay is classed as protein assay.
Assay [8] has as its target T5, Aryl hydrocarbon receptor (Homo sapiens, UniProt P35869).
T5 sequence (P35869 whole entry): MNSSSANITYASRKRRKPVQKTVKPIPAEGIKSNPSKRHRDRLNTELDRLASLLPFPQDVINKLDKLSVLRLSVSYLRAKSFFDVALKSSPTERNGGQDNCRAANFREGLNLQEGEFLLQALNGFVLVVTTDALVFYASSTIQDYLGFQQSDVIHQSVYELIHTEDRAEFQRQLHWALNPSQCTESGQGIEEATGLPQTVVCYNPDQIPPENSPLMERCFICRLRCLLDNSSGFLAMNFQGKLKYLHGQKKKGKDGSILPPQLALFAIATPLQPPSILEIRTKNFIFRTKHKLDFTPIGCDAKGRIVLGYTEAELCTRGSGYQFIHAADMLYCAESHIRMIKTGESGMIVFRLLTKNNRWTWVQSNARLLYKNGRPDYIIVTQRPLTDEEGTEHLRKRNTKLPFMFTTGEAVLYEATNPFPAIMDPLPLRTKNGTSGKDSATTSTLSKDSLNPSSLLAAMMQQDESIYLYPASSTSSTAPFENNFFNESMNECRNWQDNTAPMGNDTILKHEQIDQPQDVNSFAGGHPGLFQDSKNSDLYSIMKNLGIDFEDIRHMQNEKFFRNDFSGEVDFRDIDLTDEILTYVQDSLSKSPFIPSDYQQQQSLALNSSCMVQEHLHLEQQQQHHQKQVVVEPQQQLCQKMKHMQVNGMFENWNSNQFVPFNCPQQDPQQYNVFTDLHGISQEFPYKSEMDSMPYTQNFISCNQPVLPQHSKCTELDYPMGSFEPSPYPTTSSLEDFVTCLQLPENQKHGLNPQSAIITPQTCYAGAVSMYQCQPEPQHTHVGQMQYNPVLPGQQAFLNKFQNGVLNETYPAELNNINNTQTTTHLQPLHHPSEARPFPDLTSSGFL
Kind of assay: Luminescence-based cell-based high throughput dose response assay for activators of the Aryl Hydrocarbon Receptor (AHR). [Related pubchem assays: 2796 (Primary screen (AHR activators in singlicate)), 2845 (Confirmation screen (AHR activators in triplicate)), 434939 (Counterscreen (PXR activators in triplicate)), 2804 (Summary (AHR activators))]. The assay is classed as ADME. In general terms: A counterscreen serves to expose hits that act by an unwanted route or on another target.

Assay [9] has as its target Troponin, cardiac muscle (Homo sapiens, UniProt P19429+P45379+P63316). Kind of assay: Fluorescence-based biochemical high throughput dose response assay for activators of the calcium sensitivity of cardiac Regulated Thin Filaments (RTF). [Related pubchem assays (depositor defined):AID493008, AID493018, AID504382, AID504383]. The assay is classed as protein-complex assay.

Assay [10] deals with T4, Runt-related transcription factor 1/Core-binding factor subunit beta. Kind of assay: Runt domain/CBFb-SMMHC interaction disruptors – biochemical, TR-FRET (AID 1438). The format is protein assay.
The target in assay [11] is T6, DNA repair and recombination protein RAD54-like (Homo sapiens, UniProt Q92698).
T6 sequence (Q92698 whole entry): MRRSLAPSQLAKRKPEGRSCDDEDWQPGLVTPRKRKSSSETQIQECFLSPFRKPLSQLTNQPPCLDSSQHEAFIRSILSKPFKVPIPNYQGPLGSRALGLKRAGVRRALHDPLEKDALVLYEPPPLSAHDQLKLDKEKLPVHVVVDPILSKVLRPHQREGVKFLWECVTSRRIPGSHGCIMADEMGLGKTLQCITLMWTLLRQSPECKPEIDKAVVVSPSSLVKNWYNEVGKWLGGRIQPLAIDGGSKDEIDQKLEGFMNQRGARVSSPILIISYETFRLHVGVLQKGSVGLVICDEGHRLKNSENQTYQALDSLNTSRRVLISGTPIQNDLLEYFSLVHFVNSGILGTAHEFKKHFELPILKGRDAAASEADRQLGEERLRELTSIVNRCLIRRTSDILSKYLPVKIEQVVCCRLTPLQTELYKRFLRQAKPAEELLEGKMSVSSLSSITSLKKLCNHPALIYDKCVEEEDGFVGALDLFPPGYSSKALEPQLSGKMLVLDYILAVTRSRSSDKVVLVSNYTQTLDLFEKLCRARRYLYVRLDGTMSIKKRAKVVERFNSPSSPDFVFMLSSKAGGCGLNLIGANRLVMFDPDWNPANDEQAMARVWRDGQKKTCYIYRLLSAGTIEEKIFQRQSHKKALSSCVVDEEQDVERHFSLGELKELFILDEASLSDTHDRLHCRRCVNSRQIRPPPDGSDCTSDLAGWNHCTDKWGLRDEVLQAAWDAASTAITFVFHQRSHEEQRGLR
Kind of assay: RAD54 Holliday junction migration blockers – biochemical, fluorescence, cherry-picked samples, dose series, confirmation (AID 651657). The assay is classed as functional.

Assay [12] deals with DNA damage-inducible transcript 3 protein (Mus musculus, UniProt P35639). The assay is classed as functional, Cricetulus griseus.

The source made the active and inactive calls. Bounds are passed on as bounds.

As to `CCOC(=O)c1c(NC(=O)CSc2nnnn2-c2ccc(OC)cc2)sc(C)c1C`, the IC50 is > 64 µM (inactive) in assay [1], > 66 µM (inactive) in assay [3], > 66 µM (inactive) in assay [4] and 54.7 µM (active) in assay [6]. Also, the EC50 in [2] was 37.4 µM (inactive); in assay [5], > 80 µM (inactive).
With `CC(=O)Nc1ccc2cc3ccc(NC(C)=O)cc3nc2c1`, the IC50 in assay [7] is 14.1 µM (active); in assay [10] it was > 100 µM (inactive). In addition, the EC50 in [8] was > 3.39 µM (active); in assay [9], 38.3 µM (inactive). Also, the AC50 in [11] is 86.2 µM (active).
As to `C/C(=N\NC(=O)c1nn(C)c(C)c1Br)c1ccc(NC(=O)c2ccoc2C)cc1`, the “Absolute IC50 (CHOP)” value in [12] was determined as 10 µM.

As usually defined, the EC50 is the concentration that produces a half-maximal response. In general, AC50 refers to the concentration at which the activity in the assay is half-maximal.
